Measured values from patent US20050222167A1, “9-aminoacridine derivatives and process for the preparation thereof” (priority 2002, published 2005).
Values after ≈ are worked out from the molar mass of the structure shown.

Tests used:
[1] = tested on: A549 (human non-small lung cell); assay: SRB assay, in vitro antitumor effect against human tumor cell lines; assay type: cell-based; settings: 48 hours
Experimental: (§1) Experimental 1: In vitro antitumor effect against human tumor cell lines.
(§2) A. Tumor cell lines: A549 (human non-small lung cell)
(§3) • SKOV-3 (human ovarian) • HCT-15 (human colon) • XF-498 (human CNS) • SKMEL-2 (human melanoma) B. Method: SRB Assay • a. Human solid tumor cell lines, A549(non-small lung cell), SKMEL-2(melanoma), HCT-15(colon), SKOV-3(ovarian) and XF-498(CNS) were cultured in 5% CO2 incubators using the RPMI 1640 media containing 10% FBS at 37° C., while with transfer-culturing successively once or twice per week. Cell cultures were dissolved in a solution of 0.25% trysin and 3 mmol CDTA PBS(−) to separate the cells sticked on the culture media. • b. 5 103˜2 104 cells were added into each well of 96-well plate and cultured in 5% CO2 incubator at 37° C. for 24 hours. • c. Each sample drug was dissolved in a little DMSO and diluted with the used medium to a prescribed concentration for experiment, while the final concentration of DMSO was adjusted below 0.5%. • d. Medium of each well cultured for 24 hours as above b. was removed by aspiration. Each 200 μl of drug samples prepared in c. was added into each well and the wells were cultured for 48 hours. Tz (time zero) plates were collected at the point of time drugs were added. • e. According to the SRB assay method, cell fixing with TCA, staining with 0.4% SRB solution, washing with 1% acetic acid and elution of dye with 10 mmol Tris solution were carried out on Tz plates and culture-ended plates, and then, OD values were measured at 520 nm. C. Calculation of Result • a. Time zero (Tz) value was determined with measuring the SRB protein value at the point of time drugs were added. • b. Control value (C) was determined with the OD value of an well untreated with drug. • c. Drug-treated test value (T) was determined with the OD value of drug-treated well. • d. Effects of drugs were estimated with growth stimulation, net growth inhibition and net killing calculated from Tz, C and T values. • e. If T≧Tz, cellular response function was calculated by 100×(T−Tz)/(C−Tz), and, if T<Tz, by 100 (T−Tz)/Tz.

HCT-15 (human colon) = assay: as above; assay type: cell-based; settings: HCT-15, SRB assay, 48 hours
Experimental: as §1, §2, §3

SKMEL-2 (human melanoma) = assay: as above; assay type: cell-based; settings: SK-MEL-2, SRB assay, 48 hours
Experimental: as §1, §2, §3

SKOV-3 (human ovarian) = assay: as above; assay type: cell-based; settings: SK-OV-3, SRB assay, 48 hours
Experimental: as §1, §2, §3

XF-498 (human CNS) = assay: as above; assay type: cell-based; settings: XF-498, SRB assay, 48 hours
Experimental: as §1, §2, §3

[2] = tested on: P388 (mouse lymphoid neoplasma cell); assay: Dye exclusion assay, in vitro antitumor effects against animal leukemia cells; assay type: cell-based; settings: P388, trypan blue dye exclusion, 48 hours, read-out: concentration showing 50% cell growth inhibition (IC50)
Description: Experimental 2: In Vitro Antitumor Effects Against Animal Leukemia Cells. A. Material:
Tumor cell lines: P388 (mouse lymphoid neoplasma cell)
B. Method: Dye Exclusion Assay.

Leukemia P388 cells = assay: In vivo antitumor effects against mouse leukemia P388 cells; settings: abdominal cavity, days 1, 5, 9, BDF1 mice with P388
Experimental: Experimental 3: In Vivo Antitumor Effects Against Mouse Leukemia P388 Cells A. Material of Experiment • BDF1 mice were used. B. Method of Experiment • 1) Leukemia P388 cells being transfer-cultured successively in DBA/2 mouse, were grafted into each mouse of a group comprising 8 mice of 6 week old BDF1 mouse with the dose of 1×10^6 cells/0.1 ml • 2) Sample drugs were dissolved in PBS or suspended in 0.5% tween 80, and then injected into abdominal cavity of mouse at each prescribed concentration on days 1, 5, 9, respectively. • 3) With observation everyday, survival times of tested mice were measured. Antitumor activities was deternimed in such a manner that the increasing ratio (T/C %) of average survival days of drug-treated groups compared with the control group was calculated using the mean survival times of each tested groups.

[3] = Acute toxicity test (LD50), Litchfield-Wilcoxon method; settings: male, mouse, in vivo; iv, ICR mice, observed 14 days
Experimental: Experimental 4. Acute Toxicity Test (LD50): a) Method: Litchfield-Wilcoxon Method.
6-week-old ICR mice (male 30 2.0 g) were fed freely with solid feed and water at room temperature, […], and at humidity 60 5%. Sample drugs were injected into the abdominal cavities of mice. Each group comprised 6 mice. […] LD50 value was calculated by Litchfield-wilcoxon method.

| IC50 [2] [µg/mL] | SMILES | ED50 [1] [µg/mL] | ED50 (HCT-15 (human colon)) [µg/mL] | ED50 (SKMEL-2 (human melanoma)) [µg/mL] | ED50 (SKOV-3 (human ovarian)) [µg/mL] | ED50 (XF-498 (human CNS)) [µg/mL] | MST (Leukemia P388 cells; Dose 25 mg/kg) [days] | T/C (%) (Leukemia P388 cells; Dose 25 mg/kg) | MST (Leukemia P388 cells; Dose 50 mg/kg) [days] | T/C (%) (Leukemia P388 cells; Dose 50 mg/kg) | MST (Leukemia P388 cells; Dose 100 mg/kg) [days] | T/C (%) (Leukemia P388 cells; Dose 100 mg/kg) | LD50 at 14 days [3] [mg/kg] |
| --- | --- | --- | --- | --- | --- | --- | --- | --- | --- | --- | --- | --- | --- |
|  | N.N.[Cl][Pt][Cl] [Cisplatin, cisplatin, reference compound] | 0.81 | 3.03 | 0.71 | 0.71 | 0.77 |  |  |  |  |  |  |  |
| 0.9 (≈ 1.14 µM) | CCc1nc(OC)c(NC(=O)N2CCN(c3cc(F)cc(F)c3)CC2)cc1C(=O)NC(C)C(=O)Nc1cc(CO)cc(Nc2c3ccccc3nc3ccccc23)c1 (stereo not shown) [Example 4, 4-(3,5-difluorophenyl)piperazine-1-carboxylic acid (5-{1-[3-(acridine-9-yl-amino)-5-hydroxymethylphenylcarbamoyl]-ethylcarbamoyl}-6-ethyl-2-methoxypyridine-3-yl)amide] |  |  |  |  |  |  |  |  |  |  |  |  |
| 0.4 (≈ 0.484 µM) | CCCc1nc(OC)c(NC(=O)N2CCN(c3cc(OC)cc(OC)c3)CC2)cc1C(=O)NC(C)C(=O)Nc1cc(CO)cc(Nc2c3ccccc3nc3ccccc23)c1 (stereo not shown) [Example 9, 4-(3,5-dimethoxyphenyl)piperazine-1-carboxylic acid (5-{1-[3-(acridine-9-yl-amino)-5-hydroxymethylphenylcarbamoyl]-ethylcarbamoyl}-2-methoxy-6-propylpyridine-3-yl)-amide] | 0.24 (≈ 0.29 µM) | 0.15 (≈ 0.181 µM) | 0.15 (≈ 0.181 µM) | 0.19 (≈ 0.23 µM) | 0.15 (≈ 0.181 µM) |  |  |  |  |  |  |  |
| 0.3 (≈ 0.371 µM) | CCc1nc(OC)c(NC(=O)N2CCN(c3cc(C)cc(C)c3)CC2)cc1C(=O)NC(C)C(=O)Nc1cc(CO)cc(Nc2c3ccccc3nc3c(C)c(C)ccc23)c1 (stereo not shown) [Example 16, 4-(3,5-dimethylphenyl)piperazine-1-carboxylic acid (5-{1-[3-(3,4-dimethylacridine-9-yl-amino)-5-hydroxymethylphenylcarbamoyl]-ethylcarbamoyl}-6-ethyl-2-methoxypyridine-3-yl)amide] | 0.08 (≈ 0.0989 µM) | 0.07 (≈ 0.0865 µM) | 0.02 (≈ 0.0247 µM) | 0.14 (≈ 0.173 µM) | 0.09 (≈ 0.111 µM) |  |  |  |  |  |  |  |
|  | CCc1nc(OC)c(NC(=O)N2CCN(c3cc(C)cc(C)c3)CC2)cc1C(=O)Nc1cc(CO)cc(Nc2c3ccccc3nc3ccccc23)c1 [Example 19, 4-(3,5-dimethylphenyl)-piperazine-1-carboxylic acid{5-[3-(acridine-9-yl-amino)-5-hydroxymethylphenylcarbamoyl]-6-ethyl-2-methoxy-pyridine-3-yl}amide] | 0.21 (≈ 0.296 µM) | 0.27 (≈ 0.38 µM) | 0.18 (≈ 0.254 µM) | 0.17 (≈ 0.239 µM) | 0.38 (≈ 0.535 µM) |  |  |  |  |  |  |  |

| SMILES | IC50 [2] [µg/mL] | ED50 [1] [µg/mL] | ED50 (HCT-15 (human colon)) [µg/mL] | ED50 (SKMEL-2 (human melanoma)) [µg/mL] | ED50 (SKOV-3 (human ovarian)) [µg/mL] | ED50 (XF-498 (human CNS)) [µg/mL] | MST (Leukemia P388 cells; Dose 25 mg/kg) [days] | T/C (%) (Leukemia P388 cells; Dose 25 mg/kg) | MST (Leukemia P388 cells; Dose 50 mg/kg) [days] | T/C (%) (Leukemia P388 cells; Dose 50 mg/kg) | MST (Leukemia P388 cells; Dose 100 mg/kg) [days] | T/C (%) (Leukemia P388 cells; Dose 100 mg/kg) | LD50 at 14 days [3] [mg/kg] |
| --- | --- | --- | --- | --- | --- | --- | --- | --- | --- | --- | --- | --- | --- |
| CCc1nc(OC)c(NC(=O)N2CCN(c3cc(C)cc(C)c3)CC2)cc1C(=O)NC(C)C(=O)Nc1cc(CO)cc(Nc2c3ccccc3nc3ccccc23)c1 (stereo not shown) [Example 2, 4-(3,5-dimethylphenyl)piperazine-1-carboxylic acid (5-{1-[3-(acridine-9-yl-amino)-5-hydroxymethylphenylcarbamoyl]-ethylcarbamoyl}-6-ethyl-2-methoxypyridine-3-yl)amide] | 0.3 (≈ 0.384 µM) | 0.12 (≈ 0.154 µM) | 0.19 (≈ 0.243 µM) | 0.01 (≈ 0.0128 µM) | 0.12 (≈ 0.154 µM) | 0.18 (≈ 0.23 µM) | >60.0 | >545.5 | >60.0 | >545.5 | 22.0 | 200.0 | 80 |
| CCc1nc(OC)c(NC(=O)N2CCN(c3cc(OC)cc(OC)c3)CC2)cc1C(=O)NC(C)C(=O)Nc1cc(CO)cc(Nc2c3ccccc3nc3ccccc23)c1 (stereo not shown) [Example 3, 4-(3,5-dimethoxyphenyl)piperazine-1-carboxylic acid (5-{1-[3-(acridine-9-yl-amino)-5-hydroxymethylphenylcarbamoyl]-ethylcarbamoyl}-6-ethyl-2-methoxypyridine-3-yl)amide] | 1 (≈ 1.23 µM) | 0.12 (≈ 0.148 µM) | 0.13 (≈ 0.16 µM) | 0.03 (≈ 0.0369 µM) | 0.19 (≈ 0.234 µM) | 0.18 (≈ 0.221 µM) | 17.0 | 154.5 | >60.0 | >545.5 | 11.6 | 100.0 | 80 |
